Patent US20250324971A1, “HERBICIDAL DERIVATIVES” (SYNGENTA CROP PROTECTION AG, priority 2022, published 2025)

How the values were obtained:
Type in all cases: in vivo
[1] = system: Amaranthus palmeri (AMAPA); test: Post-Emergence Test (herbicidal, glasshouse pots); conditions: evaluated after 13 days
Summary of the method: (§1)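 Pots sown and sprayed with compound in acetone/water 50:50 with 0.5% Tween 20 at rates in g/ha, grown in glasshouse (24/16 °C, 14 h light, 65% humidity). Damage scored 13 days later on a five-point scale (5 = 81-100%, 1 = 0-20%).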

[2] = system: Echinochloa crus-galli (ECHCG); test: Post-Emergence Test (herbicidal, glasshouse pots); conditions: evaluated after 13 days
Summary of the method: as §1

Zea mays (ZEAMX) [3] = test: Post-Emergence Test (herbicidal, glasshouse pots); conditions: evaluated after 13 days
Summary of the method: as §1

[4] = system: Ipomoea hederacea (IPOHE); test: Post-Emergence Test (herbicidal, glasshouse pots); conditions: evaluated after 13 days
Summary of the method: as §1

Setaria faberi (SETFA) [5] = test: Post-Emergence Test (herbicidal, glasshouse pots); conditions: evaluated after 13 days
Summary of the method: as §1

[6] = system: Amaranthus retoflexus (AMARE); test: Post-Emergence Test (herbicidal, glasshouse pots); conditions: evaluated after 13 days
Summary of the method: as §1

[7] = system: Echinochloa crus-galli (ECHCG); test: Pre-Emergence Test (herbicidal, glasshouse pots); conditions: evaluated after 13 days, five-point scale
[8] = system: Amaranthus retoflexus (AMARE); test: Pre-Emergence Test (herbicidal, glasshouse pots); conditions: evaluated after 13 days, five-point scale
Zea mays (ZEAMX) [9] = test: Pre-Emergence Test (herbicidal, glasshouse pots); conditions: evaluated after 13 days, five-point scale
[10] = system: Amaranthus palmeri (AMAPA); test: Pre-Emergence Test (herbicidal, glasshouse pots); conditions: evaluated after 13 days, five-point scale
Setaria faberi (SETFA) [11] = test: Pre-Emergence Test (herbicidal, glasshouse pots); conditions: evaluated after 13 days, five-point scale
[12] = system: Ipomoea hederacea (IPOHE); test: Pre-Emergence Test (herbicidal, glasshouse pots); conditions: evaluated after 13 days, five-point scale

Row | SMILES | Post-Emergence Test AMAPA percentage damage (five-point scale) ([1]; rate 250 g/ha) | Post-Emergence Test ECHCG percentage damage (five-point scale) ([2]; rate 250 g/ha) | Post-Emergence Test ZEAMX percentage damage (five-point scale) (Zea mays (ZEAMX) [3]; rate 250 g/ha) | Post-Emergence Test IPHOE percentage damage (five-point scale) ([4]; rate 250 g/ha) | Post-Emergence Test SETFA percentage damage (five-point scale) (Setaria faberi (SETFA) [5]; rate 250 g/ha) | Post-Emergence Test AMARE percentage damage (five-point scale) ([6]; rate 250 g/ha) | percentage damage caused to the plant, ECHCG ([7]; rate 250 g/ha) | percentage damage caused to the plant, AMARE ([8]; rate 250 g/ha) | percentage damage caused to the plant, ZEAMX (Zea mays (ZEAMX) [9]; rate 250 g/ha) | percentage damage caused to the plant, AMAPA ([10]; rate 250 g/ha) | percentage damage caused to the plant, SETFA (Setaria faberi (SETFA) [11]; rate 250 g/ha) | percentage damage caused to the plant, IPHOE ([12]; rate 250 g/ha) | Post-Emergence Test AMAPA percentage damage (five-point scale) ([1]; rate 1000 g/ha) | Post-Emergence Test ECHCG percentage damage (five-point scale) ([2]; rate 1000 g/ha) | Post-Emergence Test ZEAMX percentage damage (five-point scale) (Zea mays (ZEAMX) [3]; rate 1000 g/ha) | Post-Emergence Test IPHOE percentage damage (five-point scale) ([4]; rate 1000 g/ha) | Post-Emergence Test SETFA percentage damage (five-point scale) (Setaria faberi (SETFA) [5]; rate 1000 g/ha) | Post-Emergence Test AMARE percentage damage (five-point scale) ([6]; rate 1000 g/ha) | percentage damage caused to the plant, ECHCG ([7]; rate 1000 g/ha) | percentage damage caused to the plant, AMARE ([8]; rate 1000 g/ha) | further results
1 | CCn1c(Oc2ccc(C)cc2)cc(=O)c(C(=O)O)c1-c1ccc(Cl)c(Cl)c1 [Compound 53, 2-(3,4-dichlorophenyl)-1-ethyl-6-(4-methylphenoxy)-4-oxo-pyridine-3-carboxylic acid] | 4 (4=61-80%) | 0 | 1 (1=0-20%) | 4 (4=61-80%) | 1 (1=0-20%) | 3 (3=41-60%) | 0 | 2 (2=21-40%) | 0 | 0 | 1 (1=0-20%) | 1 (1=0-20%) | – | – | – | – | – | – | – | – | –
2 | CCn1c(Oc2ccc(F)c(F)c2)cc(=O)c(C(=O)O)c1-c1ccc(Cl)c(Cl)c1 [Compound 28, 2-(3,4-dichlorophenyl)-6-(3,4-difluorophenoxy)-1-ethyl-4-oxo-pyridine-3-carboxylic acid] | – | – | – | – | – | – | – | – | – | – | – | – | 4 (4=61-80%) | 4 (4=61-80%) | 4 (4=61-80%) | 3 (3=41-60%) | 4 (4=61-80%) | 4 (4=61-80%) | 4 (4=61-80%) | 5 (5=81-100%) | percentage damage caused to the plant, ZEAMX (Zea mays (ZEAMX) [9]; rate 1000 g/ha): 4 (4=61-80%); percentage damage caused to the plant, AMAPA ([10]; rate 1000 g/ha): 4 (4=61-80%); percentage damage caused to the plant, SETFA (Setaria faberi (SETFA) [11]; rate 1000 g/ha): 5 (5=81-100%); percentage damage caused to the plant, IPHOE ([12]; rate 1000 g/ha): 4 (4=61-80%)
3 | CCn1c(Oc2cc(F)ccc2Cl)cc(=O)c(C(=O)O)c1-c1ccc(Cl)c(Cl)c1 [Compound 35, 6-(2-chloro-5-fluoro-phenoxy)-2-(3,4-dichlorophenyl)-1-ethyl-4-oxo-pyridine-3-carboxylic acid] | – | – | – | – | – | – | – | – | – | – | – | – | 3 (3=41-60%) | 4 (4=61-80%) | 2 (2=21-40%) | 2 (2=21-40%) | 4 (4=61-80%) | 3 (3=41-60%) | 5 (5=81-100%) | 1 (1=0-20%) | percentage damage caused to the plant, ZEAMX (Zea mays (ZEAMX) [9]; rate 1000 g/ha): 1 (1=0-20%); percentage damage caused to the plant, AMAPA ([10]; rate 1000 g/ha): 0; percentage damage caused to the plant, SETFA (Setaria faberi (SETFA) [11]; rate 1000 g/ha): 5 (5=81-100%); percentage damage caused to the plant, IPHOE ([12]; rate 1000 g/ha): 0
4 | CCn1c(Oc2ccn(C3CC3)n2)cc(=O)c(C(=O)O)c1-c1ccc(Cl)c(Cl)c1 [Compound 58, 6-(1-cyclopropylpyrazol-3-yl)oxy-2-(3,4-dichlorophenyl)-1-ethyl-4-oxo-pyridine-3-carboxylic acid] | 3 (3=41-60%) | 3 (3=41-60%) | 4 (4=61-80%) | 4 (4=61-80%) | 3 (3=41-60%) | 4 (4=61-80%) | 5 (5=81-100%) | 4 (4=61-80%) | 5 (5=81-100%) | 3 (3=41-60%) | 5 (5=81-100%) | 5 (5=81-100%) | – | – | – | – | – | – | – | – | –
5 | CCn1c(Oc2ccc(OC(F)(F)F)cc2)cc(=O)c(C(=O)O)c1-c1ccc(Cl)c(Cl)c1 [Compound 20, 2-(3,4-dichlorophenyl)-1-ethyl-4-oxo-6-[4-(trifluoromethoxy)phenoxy]pyridine-3-carboxylic acid] | – | – | – | – | – | – | – | – | – | – | – | – | 3 (3=41-60%) | 4 (4=61-80%) | 3 (3=41-60%) | 3 (3=41-60%) | 5 (5=81-100%) | 4 (4=61-80%) | 5 (5=81-100%) | 4 (4=61-80%) | percentage damage caused to the plant, ZEAMX (Zea mays (ZEAMX) [9]; rate 1000 g/ha): 3 (3=41-60%); percentage damage caused to the plant, AMAPA ([10]; rate 1000 g/ha): 4 (4=61-80%); percentage damage caused to the plant, SETFA (Setaria faberi (SETFA) [11]; rate 1000 g/ha): 5 (5=81-100%); percentage damage caused to the plant, IPHOE ([12]; rate 1000 g/ha): 2 (2=21-40%)
6 | CCn1c(Oc2cc(C)on2)cc(=O)c(C(=O)O)c1-c1ccc(Cl)c(Cl)c1 [Compound 46, 2-(3,4-dichlorophenyl)-1-ethyl-6-(5-methylisoxazol-3-yl)oxy-4-oxo-pyridine-3-carboxylic acid] | 0 | 1 (1=0-20%) | 0 | 3 (3=41-60%) | 0 | 2 (2=21-40%) | 1 (1=0-20%) | 2 (2=21-40%) | 0 | 1 (1=0-20%) | 1 (1=0-20%) | 2 (2=21-40%) | – | – | – | – | – | – | – | – | –
7 | CCn1c(Oc2cc(C3CC3)on2)cc(=O)c(C(=O)O)c1-c1ccc(Cl)c(Cl)c1 [Compound 55, 6-(5-cyclopropylisoxazol-3-yl)oxy-2-(3,4-dichlorophenyl)-1-ethyl-4-oxo-pyridine-3-carboxylic acid] | 4 (4=61-80%) | 2 (2=21-40%) | 2 (2=21-40%) | 3 (3=41-60%) | 2 (2=21-40%) | 4 (4=61-80%) | 1 (1=0-20%) | 1 (1=0-20%) | 0 | 0 | 1 (1=0-20%) | 0 | – | – | – | – | – | – | – | – | –
